Experimental data from ChEMBL document CHEMBL5365394, “Design, synthesis and biological evaluation of novel spiro-quinazolinone derivatives as chitin synthase inhibitors and antifungal agents” (Eur J Med Chem, 2023).
pIC50: −log10 of the molar value. Values after ≈ are worked out from the molar mass of the structure shown.

Columns and labels:
Aspergillus flavus [1] = assay: Antifungal activity against Aspergillus flavus ATCC 16870 assessed as fungal growth inhibition incubated for 24 hrs by two-fold serial dilution method; format: functional
[2] = Inhibition of Candida tropicalis ATCC 750 chitin synthase using UDP-GlcNAc as substrate incubated for 1 hr by absorbance based assay
Aspergillus fumigatus [3] = assay: Antifungal activity against Aspergillus fumigatus GIMCC 3.19 assessed as fungal growth inhibition incubated for 24 hrs by two-fold serial dilution method; format: functional
Cryptococcus neoformans [4] = assay: Antifungal activity against Cryptococcus neoformans ATCC 32719 assessed as fungal growth inhibition incubated for 24 hrs by two-fold serial dilution method; format: functional
Candida albicans [5] = assay: Antifungal activity against Candida albicans ATCC 76615 assessed as fungal growth inhibition incubated for 24 hrs by two-fold serial dilution method; format: functional
Candida tropicalis = assay: Inhibition of Candida tropicalis ATCC 750 chitin synthase using […] as substrate at 300 ug/ml incubated for 1 hr by absorbance based assay relative to control; conditions: dose 300.0 µg/ml
Aspergillus fumigatus [6] = assay: Antifungal activity against Fluconazole-resistant Aspergillus fumigatus GIMCC 3.19R assessed as fungal growth inhibition; format: functional
Aspergillus flavus [7] = assay: Antifungal activity against Fluconazole-resistant Aspergillus flavus ATCC 16870R assessed as fungal growth inhibition; format: functional
Cryptococcus neoformans [8] = assay: Antifungal activity against Fluconazole-resistant Cryptococcus neoformans ATCC 32719R assessed as fungal growth inhibition; format: functional
Candida albicans [9] = assay: Antifungal activity against Fluconazole-resistant Candida albicans ATCC 76615R assessed as fungal growth inhibition; format: functional

O=C(/C=C/C(=O)Nc1ccc2c(c1)C(=O)NC1(CCSC1)N2)Nc1ccc(F)c(Cl)c1 (stereo not given)
MIC (Aspergillus flavus [1]): 32 µg/mL (≈ 69.4 µM)
pIC50 [2]: 3.57
MIC (Aspergillus fumigatus [3]): 64 µg/mL (≈ 139 µM)
MIC (Cryptococcus neoformans [4]): 32 µg/mL (≈ 69.4 µM)
MIC (Candida albicans [5]): 16 µg/mL (≈ 34.7 µM)
inhibition (Candida tropicalis): 64.4%

O=C(/C=C/C(=O)Nc1ccc2c(c1)C(=O)NC1(CCSC1)N2)Nc1cccc(C(F)(F)F)c1 (stereo not given)
MIC (Aspergillus flavus [1]): 64 µg/mL (≈ 134 µM)
pIC50 [2]: 3.45
MIC (Aspergillus fumigatus [3]): 64 µg/mL (≈ 134 µM)
MIC (Cryptococcus neoformans [4]): 64 µg/mL (≈ 134 µM)
MIC (Candida albicans [5]): 128 µg/mL (≈ 269 µM)
inhibition (Candida tropicalis): 58.1%

O=C(/C=C/C(=O)Nc1ccc2c(c1)C(=O)NC1(CCSC1)N2)Nc1ccccc1 (stereo not given)
MIC (Aspergillus flavus [1]): 256 µg/mL (≈ 627 µM)
pIC50 [2]: 2.73
MIC (Aspergillus fumigatus [3]): 128 µg/mL (≈ 313 µM)
MIC (Cryptococcus neoformans [4]): 128 µg/mL (≈ 313 µM)
MIC (Candida albicans [5]): 128 µg/mL (≈ 313 µM)
inhibition (Candida tropicalis): 44.2%

O=C(/C=C/C(=O)Nc1ccccc1Cl)Nc1ccc2c(c1)C(=O)NC1(CCOC1)N2 (stereo not given)
MIC (Aspergillus flavus [1]): 128 µg/mL (≈ 300 µM)
MIC (Aspergillus fumigatus [3]): 64 µg/mL (≈ 150 µM)
MIC (Cryptococcus neoformans [4]): 128 µg/mL (≈ 300 µM)
MIC (Candida albicans [5]): 128 µg/mL (≈ 300 µM)
inhibition (Candida tropicalis): 53.7%

O=C(/C=C/C(=O)Nc1ccc2c(c1)C(=O)NC1(CCSC1)N2)Nc1ccc(F)cc1 (stereo not given)
MIC (Aspergillus flavus [1]): 128 µg/mL (≈ 300 µM)
pIC50 [2]: 3.23
MIC (Aspergillus fumigatus [3]): 128 µg/mL (≈ 300 µM)
MIC (Cryptococcus neoformans [4]): 64 µg/mL (≈ 150 µM)
MIC (Candida albicans [5]): 64 µg/mL (≈ 150 µM)
inhibition (Candida tropicalis): 54.6%

O=C(/C=C/C(=O)Nc1ccc2c(c1)C(=O)NC1(CCCC1)N2)Nc1ccc(Cl)cc1
MIC (Aspergillus flavus [1]): 128 µg/mL (≈ 301 µM)
MIC (Aspergillus fumigatus [3]): 128 µg/mL (≈ 301 µM)
MIC (Cryptococcus neoformans [4]): 128 µg/mL (≈ 301 µM)
MIC (Candida albicans [5]): 256 µg/mL (≈ 603 µM)
inhibition (Candida tropicalis): 43.1%

O=C(/C=C/C(=O)Nc1ccc2c(c1)C(=O)NC1(CCSC1)N2)Nc1ccc(Cl)cc1 (stereo not given)
MIC (Aspergillus flavus [1]): 128 µg/mL (≈ 289 µM)
pIC50 [2]: 3.36
MIC (Aspergillus fumigatus [3]): 64 µg/mL (≈ 144 µM)
MIC (Cryptococcus neoformans [4]): 64 µg/mL (≈ 144 µM)
MIC (Candida albicans [5]): 64 µg/mL (≈ 144 µM)
inhibition (Candida tropicalis): 58%

O=C(/C=C/C(=O)Nc1ccccc1Cl)Nc1ccc2c(c1)C(=O)NC1(CCSC1)N2 (stereo not given)
MIC (Aspergillus flavus [1]): 64 µg/mL (≈ 144 µM)
pIC50 [2]: 3.38
MIC (Aspergillus fumigatus [3]): 64 µg/mL (≈ 144 µM)
MIC (Cryptococcus neoformans [4]): 64 µg/mL (≈ 144 µM)
MIC (Candida albicans [5]): 32 µg/mL (≈ 72.2 µM)
inhibition (Candida tropicalis): 58.4%

OC(Cn1cncn1)(Cn1cncn1)c1ccc(F)cc1F [FLUCONAZOLE]
MIC (Aspergillus fumigatus [6]): 256 µg/mL (≈ 836 µM)
MIC (Aspergillus flavus [1]): 4 µg/mL (≈ 13.1 µM)
MIC (Aspergillus flavus [7]): 256 µg/mL (≈ 836 µM)
MIC (Aspergillus fumigatus [3]): 8 µg/mL (≈ 26.1 µM)
MIC (Cryptococcus neoformans [8]): 256 µg/mL (≈ 836 µM)
MIC (Cryptococcus neoformans [4]): 4 µg/mL (≈ 13.1 µM)
MIC (Candida albicans [5]): 2 µg/mL (≈ 6.53 µM)
MIC (Candida albicans [9]): 256 µg/mL (≈ 836 µM)

O=C(/C=C/C(=O)Nc1ccc2c(c1)C(=O)NC1(CCSC1)N2)Nc1cccc(Cl)c1 (stereo not given)
MIC (Aspergillus flavus [1]): 64 µg/mL (≈ 144 µM)
pIC50 [2]: 3.55
MIC (Aspergillus fumigatus [3]): 32 µg/mL (≈ 72.2 µM)
MIC (Cryptococcus neoformans [4]): 64 µg/mL (≈ 144 µM)
MIC (Candida albicans [5]): 32 µg/mL (≈ 72.2 µM)
inhibition (Candida tropicalis): 60.9%

O=C(/C=C/C(=O)Nc1ccc2c(c1)C(=O)NC1(CCOC1)N2)Nc1ccc(F)c(Cl)c1 (stereo not given)
MIC (Aspergillus flavus [1]): 64 µg/mL (≈ 144 µM)
MIC (Aspergillus fumigatus [3]): 64 µg/mL (≈ 144 µM)
MIC (Cryptococcus neoformans [4]): 128 µg/mL (≈ 288 µM)
MIC (Candida albicans [5]): 128 µg/mL (≈ 288 µM)
inhibition (Candida tropicalis): 56.8%
